Data from US12324927B2, “Methods and systems for photodynamic therapy calculations” (THE TRUSTEES OF THE UNIVERSITY OF PENNSYLVANIA, priority 2018, dated 2025).
“And” between values parts separate entries of the source, which are not always exact repeats. Identical values can stand only once. “Also recorded” adds a separate entry of the source.

How the values were obtained:
[1] = test system: radiation-induced fibrosarcoma (RIF) tumors; assay: Photofrin-mediated PDT of RIF tumors: explicit dosimetry and tumor regrowth (cure index); assay type: in vivo, mice; details: for Photofrin post: in tumor after PDT; for Photofrin post / Photofrin pre / [ROS]rx, mea / [ROS]rxcal / CI (cure index, 1−k/kctr): per mouse; for Photofrin pre: in tumor before PDT, 5 mg/kg i.v., 24 h, 5 mg/kg; for [ROS]rx, mea / [ROS]rxcal: 3 mm; for [ROS]rx, mea: measured [^3O2](t); for [ROS]rxcal: model-calculated [^3O2]; for CI (cure index, 1−k/kctr): tumor growth up to 14 days
Experimental: Radiation-induced fibrosarcomas (RIF) cells were cultured and injected in the right shoulder regions of 6-8 weeks old female C3H mice (NCI-Frederick, Frederick, MD). 30 μl were injected at a concentration of 1×10^7 cells/ml, as described previously.^8-11 Animals were under the care of the University of Pennsylvania Laboratory Animal Resources. All studies were approved by the University of Pennsylvania Institutional Animal Care and Use Committee. The fur of the treatment region was clipped prior to cell inoculation, and the treatment area was depilated with Nair (Church & Dwight Co., Inc., Ewing, NJ) at least 24 hours prior to measurements and treatment. Tumors were treated when they were 3˜5 mm in diameter. Mice were given a chlorophyll-free (alfalfa-free) rodent diet (Harlan laboratories Inc., Indianapolis, IN) at least 10 days prior to treatment to eliminate the fluorescence signal from chlorophyll-breakdown products, which have a similar range to the photosensitizer spectra obtained in this study. The photosensitizer fluorescence was used to determine the in vivo concentrations in this study, using methods described previously.^7-9
Treatment delivery was done using an optical fiber with a microlens attachment coupled to a diode laser with the appropriate wavelength for each photosensitizer. A 630 nm laser (Biolitec, Inc., East Longmeadow, MA, USA) was used for Photofrin after a 18˜24 hours drug-light interval. The in-air fluence rate (ϕair) is defined as the calculated irradiance determined by the laser power divided by the treatment area (1 cm diameter spot size). The in-air fluence was calculated by multiplying the in-air fluence rate by the treatment time. RIF tumor-bearing mice with no photosensitizer and no light excitation were used as controls (n=5).
Photofrin (Pinnacle Biologics, Chicago, Illinois) at a dosage of 5 mg/kg was injected through the mouse tail vein as described previously.^12,13 At a 24-h drug-light interval, superficial irradiation of the tumor was performed with a 630-nm laser (Biolitec AG., A-1030, Vienna). A microlens fiber was coupled to the laser to irradiate the tumor uniformly. Animals were assigned to four light dose groups, and each group was comprised of 2 to 3 subgroups with different ϕ. There were a total of 5 treatment groups: 50 J/cm^2 at 150 mW/cm^2, 250 J/cm^2 at 75 mW/cm^2, 135 J/cm^2 at 75 mW/cm^2, 75 J/cm^2 at 75 mW/cm^2, and 100 J/cm^2 at 150 mW/cm^2. Tumor-bearing mice that received neither light irradiation nor Photofrin were used as controls.
Following the drug-light interval of 18˜24 hours, measurements of light fluence rate, photosensitizer concentration and [O2] were performed. Photofrin fluorescence spectra was obtained using a custom-made multi-fiber contact probe before and after PDT.^14 The probe is connected to a 405 nm laser (Power Technology Inc., Little Rock, AR, USA) for the fluorescence excitation of Photofrin and a multichannel CCD spectrograph (InSpectrum, Princeton Instruments, Trenton, NJ, USA) for the collection of the spectra. The in vivo photosensitizer concentration was obtained by comparing the in vivo Photofrin spectra with those of phantoms with known photosensitizer concentrations. The attenuation of the fluorescence signal due to the light absorption and scattering by tissues was corrected by applying an empirical correction factor described elsewhere. The accuracy of in vivo measurements was validated by ex vivo measurements in separate mice.^15.16
The in vivo tissue oxygen partial pressure pO2 was measured during PDT treatment using a phosphorescence-based ^3O2 probe (OxyLite Pro, Oxford Optronix, Oxford, United Kingdom). A bare-fiber-type probe (NX-BF/O/E, Oxford Optronix, Oxford, United Kingdom) was placed inside the tumor at a 3 mm depth from the treatment surface. […]

[2] = Photofrin concentration and PDT dose at pleural cavity sites measured by fluorescence with 4-channel PDT dose dosimeter during Photofrin-mediated pleural PDT; parameters: species or system human; details: in vivo, all measurement sites, 630 nm, 60 J cm^−2
[3] = test system: radiation-induced fibrosarcoma (RIF) tumors; details: larger tumors; cited from earlier work

Photofrin post ([1]; 75.00 mW/cm2 for 1500.00 s): 2.80 µM and 3.70 µM and 3.01 µM
Photofrin pre ([1]; 75.00 mW/cm2 for 1500.00 s): 6.50 µM and 6.70 µM and 6.00 µM
Substance: Photofrin
Photofrin post ([1]; 75.00 mW/cm2 for 1800.00 s): 4.90 µM and 3.35 µM and 3.00 µM and 3.50 µM
Photofrin post ([1]; 75.00 mW/cm2 for 3333.00 s): 3.02 µM and 2.44 µM and 2.48 µM and 2.20 µM
Photofrin post ([1]; 150.00 mW/cm2 for 333.00 s): 3.07 µM and 1.19 µM and 2.80 µM and 2.30 µM
Photofrin post ([1]; 150.00 mW/cm2 for 666.00 s): 2.50 µM and 3.54 µM and 4.88 µM and 3.49 µM
Photofrin pre ([1]; 75.00 mW/cm2 for 1800.00 s): 6.90 µM and 6.80 µM and 5.20 µM and 5.67 µM
Photofrin pre ([1]; 75.00 mW/cm2 for 3333.00 s): 6.47 µM and 4.20 µM and 4.54 µM and 4.50 µM
Photofrin pre ([1]; 150.00 mW/cm2 for 333.00 s): 6.80 µM and 3.07 µM and 5.84 µM and 5.10 µM
Photofrin pre ([1]; 150.00 mW/cm2 for 666.00 s): 6.40 µM and 7.20 µM and 7.84 µM and 6.79 µM
[ROS]rx, mea ([1]; 75.00 mW/cm2 for 1500.00 s): 0.82 mM and 0.73 mM and 0.65 mM
[ROS]rx, mea ([1]; 75.00 mW/cm2 for 1800.00 s): 1.13 mM and 0.96 mM and 1.00 mM and 1.10 mM
[ROS]rx, mea ([1]; 75.00 mW/cm2 for 3333.00 s): 1.40 mM and 1.41 mM and 1.39 mM and 1.20 mM
[ROS]rx, mea ([1]; 150.00 mW/cm2 for 333.00 s): 0.27 mM (2×) and 0.21 mM and 0.38 mM
[ROS]rx, mea ([1]; 150.00 mW/cm2 for 666.00 s): 0.77 mM and 0.79 mM and 0.88 mM and 0.78 mM
[ROS]rxcal ([1]; 75.00 mW/cm2 for 1500.00 s): 0.89 mM and 0.93 mM and 0.87 mM
[ROS]rxcal ([1]; 75.00 mW/cm2 for 1800.00 s): 1.39 mM and 1.24 mM and 1.07 mM and 1.09 mM
[ROS]rxcal ([1]; 75.00 mW/cm2 for 3333.00 s): 2.33 mM and 1.73 mM and 1.89 mM and 1.87 mM
[ROS]rxcal ([1]; 150.00 mW/cm2 for 333.00 s): 0.29 mM and 0.235 mM and 0.39 mM and 0.32 mM
[ROS]rxcal ([1]; 150.00 mW/cm2 for 666.00 s): 0.69 mM and 0.81 mM (2×) and 0.8 mM
CI (cure index, 1−k/kctr) ([1]; 75.00 mW/cm2 for 1500.00 s): 0.20 and 0.22 and 0.13
CI (cure index, 1−k/kctr) ([1]; 75.00 mW/cm2 for 1800.00 s): 1.00 and 0.56 and 0.64 and 0.82
CI (cure index, 1−k/kctr) ([1]; 75.00 mW/cm2 for 3333.00 s): 1.00
CI (cure index, 1−k/kctr) ([1]; 150.00 mW/cm2 for 333.00 s): 0.03 and 0.00 and 0.01 and 0.06
CI (cure index, 1−k/kctr) ([1]; 150.00 mW/cm2 for 666.00 s): 0.15 and 0.25 and 0.42 and 0.27
PDT dose threshold ([1]; this study): 439 mM J/cm^2
photobleaching of Photofrin during PDT treatment [2]: no significant photobleaching; also recorded: did not change significantly; also recorded: negligible photobleaching
PDT dose threshold from previous study [3]: 1200 mM J/cm^2
